Reference: patent publication US5039665A, “Use of fructose-1,6-diphosphate for treating myocardial infarction” (priority 1990, dated 1991)

Experiments:
[1] = system: erythrocytes; test: incubation of erythrocytes: ATP and 2-3 DPG content; assay type: cell-based; details: equimolar, same conditions
From the text: (§1) To allow for a broader and more complete interpretation of the results, a small paragraph will be devoted to the ability of FDP to cross the cellular membranes.

[2] = system: rabbit ileum; test: force of contraction of isolated rabbit ileum; details: added to perfusate
From the text: as §1

[3] = system: heart preparation; details: infusion of Locke's solution plus sugar; cited from earlier work

SMILES	ATP content in the erythrocytes [1]	force of contraction [2]	amplitude and frequency of heart beats, lactic acid, pH and potassium during recovery [3]
O=C(CO)[C@@H](O)[C@H](O)[C@H](O)COP(=O)(O)O [fructose-6-phosphate]	failed to increase the ATP content	fail to produce the same effect	
O=C(CO)[C@@H](O)[C@H](O)[C@H](O)CO [fructose]	failed to increase the ATP content	fail to produce the same effect	no significant difference
O=C[C@H](O)[C@@H](O)[C@H](O)[C@H](O)COP(=O)(O)O [glucose-6-phosphate]	failed to increase the ATP content	fail to produce the same effect	
O=P(O)(O)O [inorganic phosphate]	failed to increase the ATP content	fail to produce the same effect	
OC[C@H]1O[C@@](CO)(O[C@H]2O[C@H](CO)[C@@H](O)[C@H](O)[C@H]2O)[C@@H](O)[C@@H]1O [sucrose]			no significant difference
